# Entries after “also recorded” stand apart in the source; their conditions may differ. Read-outs that look alike come from different tables or passages of the source.
# How the values were obtained:
# [1] = system: resistant or refractory, advanced NHL; experiment: Phase I dose escalation trial of Compound 1 oral monotherapy in NHL (NCT03328078); assay type: in vivo, human
# Experimental: Seven dosing cohorts included 50 and 100 mg QD, and 50, 100, 200, 300, or 400 mg BID of daily continuous oral monotherapy in 21-Day cycles. Objective included safety and tolerance (primary), pk/pd and early efficacy (secondary), and biomarker correlations (exploratory). 31 patients with resistant or refractory, advanced NHL have been enrolled.
# WM = assay type: in vivo, human
# Experimental: The patient remained asymptomatic for over 4 years with a slow increase in m-protein and IgM during that time. By mid-2017 they started to experience increased fatigue. […] There was no evidence of CXCR4 genomic alteration. […] Several options were discussed including clinical trials and standard of care Bruton’s tyrosine kinase inhibitor (BTKi) therapy.
# Baseline testing in December 2018 included a bone marrow biopsy showing 5-10% involvement by WM, m-protein of 1.66 g/dL, IgM 2,801 mg/dL, and a computed tomography scan without pathological lymphadenopathy or hepatosplenomegaly. Quantitative immunoglobulins and serum protein electrophoresis were obtained each cycle to determine response to treatment (FIG. 1).
# The patient initiated treatment at the first dose level, 50 mg. […] Using a standard 3+3 design the subsequent dose level, 100 mg po BID, was cleared per protocol. Considering evidence of response without noted toxicity, the patient was a candidate to escalate to 100 mg po BID starting with cycle 7 day 1 in April 2019. […] They reported a significant improvement in their quality of life with resolution of fatigue and returned to a rigorous daily exercise program that they had been unable to perform for the last 2 years due to WM-related symptoms. In August 2019 they were noted to have an asymptomatic grade 2 creatine phosphokinase (CPK) elevation, extensive work-up and physical exam was unrevealing. […] During cycles 15 through 20, while on the 200 mg po BID dose, the patient’s IgM plateaued around 1500 mg/dL and m-protein plateaued near 0.9 g/dL. Based on evolving safety data at higher dose levels, the patient was escalated to […] starting with cycle 20 in 1/2020.
# [2] = 200 mg po BID, cycles 15 through 20
smiles,measurement,setting,value
Cc1cc(-c2nc(C(=O)Nc3cc4oc(N5CCOCC5)nc4nc3N3CC[C@@H](O)C3)co2)ccn1 [Compound 1],safety and tolerance overall,[1]; 50 mg QD to 400 mg BID,well tolerated; also recorded: good safety and tolerance
same,"Anemia, Grade 3 or Higher",[1]; 200 mg BID N=5,0 n (%) [E]
same,"Thrombocytopenia, All Grades",[1]; 200 mg BID N=5,0 n (%) [E]
same,"Thrombocytopenia, Grade 3 or Higher",[1]; 200 mg BID N=5,0 n (%) [E]
same,"Anemia, Grade 3 or Higher",[1]; 300 mg BID N=6,0 n (%) [E]
same,"Thrombocytopenia, All Grades",[1]; 300 mg BID N=6,0 n (%) [E]
same,"Thrombocytopenia, Grade 3 or Higher",[1]; 300 mg BID N=6,0 n (%) [E]
same,"Neutropenia, Grade 3 or Higher",[1]; 400 mg BID N=8,0 n (%) [E]
same,Tumor Reduction,"[1]; DLBCL (transformed MZL), initial 50 mg qd, final 50 mg qd",24%
same,Tumor Reduction,"[1]; DLBCL-ABC, initial 400 mg bid, final 400 mg bid",42%
same,Tumor Reduction,"[1]; DLBCL, initial 50 mg bid, final 50 mg bid",11%
same,Tumor Reduction,"[1]; FL, initial 100 mg qd, final 50 mg qd",49%
same,Tumor Reduction,"[1]; LPL, initial 200 mg bid, final 300 mg bid *",20%
same,Tumor Reduction,"[1]; MALT/MZL, initial 400 mg bid, final 300 mg bid*",25%
same,Tumor Reduction,"[1]; MZL, initial 400 mg bid, final 400 mg bid",5%
same,Tumor Reduction,"[1]; WM, initial 50 mg bid, final 300 mg bid *",66%
same,"pharmacodynamic changes, cytokines",[1]; in vivo,cytokine reductions
same,"pharmacokinetics, exposure versus dose",[1]; in vivo,dose-proportional increases in exposure
same,clinical activity,[1]; summary,preliminary clinical activity
same,pharmacokinetic properties,[1]; summary,desirable pharmacokinetic properties
same,disease control,[1]; treatment duration between < 1 and 18+ months,sustained disease control
same,IgM,"WM; 50 mg, cycle 6 day 1",2639 mg/dL
same,IgM,"WM; 50 mg, during first 2 cycles, baseline 2801 mg/dL",2866 mg/dL
same,m-protein,"WM; 50 mg, first six 21-day cycles, baseline 1.66 g/dL",1.55 g/dL
same,response,"WM; 100 mg po BID, cycles 7 and 8",stable disease (SD)
same,IgM plateau,WM; [2],around 1500 mg/dL
same,m-protein plateau,WM; [2],~0.9 g/dL
same,IgM,"WM; 300 g po BID from cycle 20, C22 day 1",1241 mg/dL
same,m-protein,"WM; after 100 mg po BID cycles 7-8, prior to 200 mg BID escalation",1.37 g/dL
same,m-protein,"WM; from cycle 20, C22 day 1",0.68 g/dL
